We go through three molecules from ChEMBL document CHEMBL1201862, “PubChem BioAssay data set” (2004).

Calls of active or inactive are those of the source. Bounds are passed on as bounds.

The target in experiment [1] is T1, Calpain-2 catalytic subunit (Sus scrofa, UniProt P43367).
T1 sequence (P43367 whole entry): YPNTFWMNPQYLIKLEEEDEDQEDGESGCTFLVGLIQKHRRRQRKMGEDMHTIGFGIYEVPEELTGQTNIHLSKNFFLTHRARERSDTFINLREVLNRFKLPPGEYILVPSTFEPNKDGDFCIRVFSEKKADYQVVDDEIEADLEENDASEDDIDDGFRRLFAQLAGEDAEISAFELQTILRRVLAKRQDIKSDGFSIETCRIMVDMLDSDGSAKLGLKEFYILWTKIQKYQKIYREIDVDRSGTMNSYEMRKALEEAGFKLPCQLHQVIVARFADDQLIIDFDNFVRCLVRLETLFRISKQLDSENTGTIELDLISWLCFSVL
Put plainly: m-calpain protease blockers, concentration series – biochemical, fluorogenic peptide substrate, dose response (AID 1420). The experiment is classed as functional.

In experiment [2] the target is T2, Histone-lysine N-methyltransferase NSD2 (Homo sapiens, UniProt O96028).
T2 sequence (O96028 whole entry): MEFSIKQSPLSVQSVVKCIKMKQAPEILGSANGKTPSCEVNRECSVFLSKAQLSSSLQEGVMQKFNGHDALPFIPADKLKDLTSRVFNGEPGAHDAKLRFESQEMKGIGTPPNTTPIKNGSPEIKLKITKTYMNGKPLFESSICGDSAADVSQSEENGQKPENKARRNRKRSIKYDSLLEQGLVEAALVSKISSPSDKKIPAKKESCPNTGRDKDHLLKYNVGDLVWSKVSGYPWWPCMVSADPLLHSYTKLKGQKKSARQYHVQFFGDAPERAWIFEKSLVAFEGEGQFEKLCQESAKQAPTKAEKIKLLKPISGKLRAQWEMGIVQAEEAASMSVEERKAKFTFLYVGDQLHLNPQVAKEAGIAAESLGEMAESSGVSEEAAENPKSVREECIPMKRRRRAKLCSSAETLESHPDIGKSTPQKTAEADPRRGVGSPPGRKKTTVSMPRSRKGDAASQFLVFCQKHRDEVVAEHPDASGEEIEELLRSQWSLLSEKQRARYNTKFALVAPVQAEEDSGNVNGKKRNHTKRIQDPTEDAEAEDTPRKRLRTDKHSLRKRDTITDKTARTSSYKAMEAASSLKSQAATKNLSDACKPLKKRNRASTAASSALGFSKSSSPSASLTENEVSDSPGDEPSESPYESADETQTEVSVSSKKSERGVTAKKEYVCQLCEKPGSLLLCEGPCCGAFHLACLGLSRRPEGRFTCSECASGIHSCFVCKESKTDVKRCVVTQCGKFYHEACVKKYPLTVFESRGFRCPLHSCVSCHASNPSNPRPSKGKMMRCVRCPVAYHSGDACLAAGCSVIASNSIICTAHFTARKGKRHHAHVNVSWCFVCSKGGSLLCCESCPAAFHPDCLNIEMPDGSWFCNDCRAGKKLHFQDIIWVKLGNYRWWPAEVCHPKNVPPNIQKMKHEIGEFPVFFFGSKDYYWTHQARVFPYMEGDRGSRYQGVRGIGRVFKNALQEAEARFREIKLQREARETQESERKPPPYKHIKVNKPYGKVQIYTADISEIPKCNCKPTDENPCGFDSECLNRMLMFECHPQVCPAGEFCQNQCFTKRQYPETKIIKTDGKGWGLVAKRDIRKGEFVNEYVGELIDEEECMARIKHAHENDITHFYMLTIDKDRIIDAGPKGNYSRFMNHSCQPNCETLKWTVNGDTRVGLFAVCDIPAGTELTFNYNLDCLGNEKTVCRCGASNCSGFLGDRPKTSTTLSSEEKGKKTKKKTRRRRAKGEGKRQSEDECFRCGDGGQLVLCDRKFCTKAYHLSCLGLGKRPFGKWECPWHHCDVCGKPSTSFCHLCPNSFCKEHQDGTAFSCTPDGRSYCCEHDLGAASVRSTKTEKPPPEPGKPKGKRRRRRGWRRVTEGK
It counts as biochemical.

The subject of a further experiment is INS1. Put plainly: INS-1E survival protection against cytokine death – cell-based, luminescence, retest, dose response (AID 449756).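 Further: cell death triggered by IL-1 beta plus TNF-alpha plus IFN-gamma mixture; protective hits raise ATP signal compared with cytokine alone wells.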 Conditions: Rattus norvegicus. It counts as functional.
The nature of experiment [3]: NIH3T3 cell viability loss – ATP luminescence, mouse fibroblasts, counter-screen, dose response (AID 2010).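 Further: cells exposed to compound for about 90 hours before reading.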 It counts as functional, cell-based. In general terms: The purpose of a counterscreen is to sort out artefacts and off-target activity.
The nature of experiment [4]: Trypanosoma cruzi growth suppression in host cells – NIH3T3 host cells, beta-gal luminescence, confirmation (AID 2044).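 Further: intracellular parasites grown in NIH/3T3 mouse fibroblasts as host cells; luminescent beta-galactosidase reporter signal from transgenic T. cruzi replicating inside host cells; inhibitors lower the luminescence signal.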 It counts as functional, cell-based.
Another experiment concerns A-375. Put plainly: proliferation inhibition in MITF-low A375 cells – cell-based, cherry-pick samples, set 2, counter-screen for MITF modulator project, dose response (AID 540335). The experiment is classed as functional. Conditions: Homo sapiens.
Experiment [5] has as its target Microphthalmia-associated transcription factor (Homo sapiens, UniProt O75030). Put plainly: reducers of TRPM1 reporter luminescence, concentration series – cell-based, SK-MEL-5, cherry-picked, set 3, MITF inhibitor project, dose response (AID 493073).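 Further: SK-MEL-5 melanoma cells with luciferase driven by the MITF target TRPM1 promoter.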 The experiment is classed as functional.
A short description of experiment [6]: Luminescence-based dose response cell-based high throughput screening assay for cytotoxic compounds using the IEC-6 intestinal epithelial cell line. [Related pubchem assays: 1858 (Summary AID.), 1825 (Counterscreen.), 1907 (Confirmation screen.)]. It counts as functional.
The target in experiment [7] is T3, Apoptotic protease-activating factor 1 (Homo sapiens, UniProt O14727).
T3 sequence (O14727 whole entry): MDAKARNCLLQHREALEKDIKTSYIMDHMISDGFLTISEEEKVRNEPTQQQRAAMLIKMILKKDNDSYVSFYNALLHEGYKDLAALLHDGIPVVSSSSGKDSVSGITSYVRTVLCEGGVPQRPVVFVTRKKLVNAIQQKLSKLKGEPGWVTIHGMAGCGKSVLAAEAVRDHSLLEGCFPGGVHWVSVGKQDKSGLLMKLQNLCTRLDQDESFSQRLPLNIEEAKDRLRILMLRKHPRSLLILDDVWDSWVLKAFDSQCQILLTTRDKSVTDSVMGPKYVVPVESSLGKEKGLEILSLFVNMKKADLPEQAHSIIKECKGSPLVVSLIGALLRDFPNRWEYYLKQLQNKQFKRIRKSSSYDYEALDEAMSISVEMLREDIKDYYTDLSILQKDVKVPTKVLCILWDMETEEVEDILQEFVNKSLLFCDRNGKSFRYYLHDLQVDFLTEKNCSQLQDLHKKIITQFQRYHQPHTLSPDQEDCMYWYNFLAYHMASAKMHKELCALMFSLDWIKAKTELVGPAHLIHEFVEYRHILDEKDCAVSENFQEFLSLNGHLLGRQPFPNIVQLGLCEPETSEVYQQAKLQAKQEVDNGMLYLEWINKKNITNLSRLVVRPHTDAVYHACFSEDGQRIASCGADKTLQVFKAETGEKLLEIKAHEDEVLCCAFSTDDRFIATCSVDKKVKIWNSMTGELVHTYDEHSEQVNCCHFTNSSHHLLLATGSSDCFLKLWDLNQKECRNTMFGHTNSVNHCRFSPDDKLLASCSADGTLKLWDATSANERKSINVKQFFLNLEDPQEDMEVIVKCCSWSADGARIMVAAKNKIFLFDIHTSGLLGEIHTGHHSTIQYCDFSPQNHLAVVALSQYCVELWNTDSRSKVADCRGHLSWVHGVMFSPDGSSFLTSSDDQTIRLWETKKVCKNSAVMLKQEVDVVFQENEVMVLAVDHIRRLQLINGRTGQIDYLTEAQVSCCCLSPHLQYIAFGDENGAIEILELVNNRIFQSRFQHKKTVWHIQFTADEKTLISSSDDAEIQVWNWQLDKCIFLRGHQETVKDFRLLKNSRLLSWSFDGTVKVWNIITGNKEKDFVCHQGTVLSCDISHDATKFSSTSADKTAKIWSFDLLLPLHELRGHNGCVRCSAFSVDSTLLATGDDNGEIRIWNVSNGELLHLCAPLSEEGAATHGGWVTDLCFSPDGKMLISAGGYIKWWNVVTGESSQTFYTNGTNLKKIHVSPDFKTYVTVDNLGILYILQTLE
It counts as functional.

A further experiment deals with Vero. Put plainly: cells. Conditions: Chlorocebus sabaeus. The experiment is classed as functional.
Experiment [8] in a line: toxicity toward HepG2 liver cells – cell-based, plate reader, cherry-pick, antagonist series, cytotoxicity control, dose response (AID 743416). The experiment is classed as functional.
Experiment [9] is described as follows: A549 cell cytotoxicity, dose response, cytotoxicity control, plate reader, cherry-pick, antagonist series (AID 743412). The experiment is classed as functional, cell-based.
Experiment [10] in a line: HEK-293T viability loss after treatment – luminescence, T-cell screen hits, cytotoxicity control for TCR NF-kB inhibitor project, dose response (AID 489026).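 Further: cells exposed to compound about 14 hours before the viability readout.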 It counts as functional, cell-based.
For experiment [11], the target named is Luciferin 4-monooxygenase (Photuris pensylvanica, UniProt Q27757). Put plainly: inhibition of Cell Titer Glo luciferase signal – biochemical, luminescence, cherry-picks, counter-screen for HSF-1 reporter inhibitor project, dose response (AID 588847). (In general: ATP-based viability assays read luminescence as a measure of living cells.)
The nature of experiment [12]: Counterscreen for AddAB inhibitors: absorbance-based bacterial cell-based high throughput dose response assay for inhibitors of bacterial viability. [Related pubchem assays (depositor defined):AID435030, AID449728, AID449731, AID488942, AID488955, AID488956]. The experiment is classed as functional.
Experiment [13] can be described thus: blockers of bursicon-stimulated LGR2 cAMP reporter – cell-based, HEK293, CRE-luciferase reporter, cherry pick, set 2, dose response (AID 743343).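 Further: transfected cells were stimulated with diluted bursicon conditioned medium after compound addition.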 It counts as functional. (In a reporter assay the amount or activity of a reporter protein is the signal.)
Another experiment addresses Paired box protein Pax-8 (Homo sapiens, UniProt Q06710). Put plainly: PAX8 transcriptional activity inhibition in RMG-I – RMG-I cells, luciferase, cherry-pick, dose response (AID 687027).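 Further: luciferase reporter driven by Pax8 target thyroperoxidase promoter measured by SteadyGlo luminescence.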 The experiment is classed as functional, cell-based.
Experiment [14] is described as follows: general cell-killing toxicity readout – plate reader, dry powder samples, cytotoxicity control for PAX8 inhibitor project, dose response (AID 743021). It counts as functional, cell-based.
A further experiment has as its target Exodeoxyribonuclease V (Escherichia coli (strain K12), UniProt P04993+P07648+P08394). Kind of experiment: RecBCD inhibition via phage-restricted bacterial growth – absorbance, V66 E. coli, mutant T4 phage, counter-screen for AddAB inhibitor project, dose response (AID 492957). It counts as functional, cell-based, Escherichia coli str. K-12 substr. MG1655.
A short description of experiment [15]: viability loss in HEK293 cells – cell-based, plate reader, cherry-picked samples, cytotoxicity control, dose response (AID 743446). It counts as functional.
Experiment [16] in a line: blockade of melanocortin 4 receptor signaling – cell-based, plate reader, cherry pick, counter-screen for LGR2 antagonist project, dose response (AID 743444).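 Further: transfected HEK 293 cells stimulated with alpha-MSH peptide; potency of inhibitors of the alpha-MSH evoked signal.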 It counts as functional.
Experiment [17] deals with T4, Heat shock factor protein 1 (Mus musculus, UniProt P38532).
T4 sequence (P38532 whole entry): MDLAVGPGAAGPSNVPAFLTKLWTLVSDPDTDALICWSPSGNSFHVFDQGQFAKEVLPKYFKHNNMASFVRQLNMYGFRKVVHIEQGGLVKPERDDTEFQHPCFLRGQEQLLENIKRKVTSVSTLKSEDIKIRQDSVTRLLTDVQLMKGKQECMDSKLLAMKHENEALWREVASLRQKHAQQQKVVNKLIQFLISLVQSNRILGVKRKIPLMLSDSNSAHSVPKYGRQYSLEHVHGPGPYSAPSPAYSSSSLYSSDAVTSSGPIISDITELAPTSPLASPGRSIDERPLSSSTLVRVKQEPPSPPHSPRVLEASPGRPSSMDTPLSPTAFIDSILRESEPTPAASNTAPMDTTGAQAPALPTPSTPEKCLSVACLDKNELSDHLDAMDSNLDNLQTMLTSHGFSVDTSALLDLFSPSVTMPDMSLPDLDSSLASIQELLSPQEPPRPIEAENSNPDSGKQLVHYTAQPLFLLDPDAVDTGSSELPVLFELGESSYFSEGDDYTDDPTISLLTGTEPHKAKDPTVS
Put plainly: decrease of HSF1-responsive luciferase luminescence – cell-based, NIH3T3, dose retest, confirmation (AID 2382).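 Further: NIH3T3 fibroblasts with HSF1-driven luciferase reporter stressed by proteasome inhibitor MG132; luminescence from HSF1-driven luciferase expression after 8 hours of MG132 stress.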 The experiment is classed as functional.

Experiment [18] addresses Type-1 angiotensin II receptor (Homo sapiens, UniProt P30556). Kind of experiment: antagonism of angiotensin II type 1 receptor – cell-based, uHTS hits, selectivity assay for APJ receptor antagonist project, dose response (AID 463214).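 Further: antagonist potency against angiotensin II stimulated AT1 response.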 It counts as functional.
Another experiment concerns the target Beta-galactosidase (Escherichia coli, UniProt Q8VNN2). Put plainly: PubChem AID 485352. It counts as functional.
Experiment [19] is described as follows: CCR5-tropic HIV-1 fusion blockers – cell-based, CCR5-tropic Env, dose response (AID 2279). The experiment is classed as functional.

Microphthalmia-associated transcription factor, sequence (O75030 whole entry): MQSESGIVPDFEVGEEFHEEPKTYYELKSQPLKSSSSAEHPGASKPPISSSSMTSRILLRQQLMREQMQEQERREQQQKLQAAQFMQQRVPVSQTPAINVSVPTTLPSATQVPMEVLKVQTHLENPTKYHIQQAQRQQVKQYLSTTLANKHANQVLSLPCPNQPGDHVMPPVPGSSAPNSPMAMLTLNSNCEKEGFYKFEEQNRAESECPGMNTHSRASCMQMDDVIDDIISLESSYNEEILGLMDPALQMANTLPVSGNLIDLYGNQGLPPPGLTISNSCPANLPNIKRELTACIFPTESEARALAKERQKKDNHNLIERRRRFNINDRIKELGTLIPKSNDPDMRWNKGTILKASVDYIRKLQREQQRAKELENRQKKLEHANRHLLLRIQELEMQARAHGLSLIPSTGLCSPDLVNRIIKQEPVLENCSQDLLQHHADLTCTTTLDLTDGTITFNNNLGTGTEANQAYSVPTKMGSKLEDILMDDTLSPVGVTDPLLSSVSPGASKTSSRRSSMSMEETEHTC
Exodeoxyribonuclease V, sequence (P04993 whole entry): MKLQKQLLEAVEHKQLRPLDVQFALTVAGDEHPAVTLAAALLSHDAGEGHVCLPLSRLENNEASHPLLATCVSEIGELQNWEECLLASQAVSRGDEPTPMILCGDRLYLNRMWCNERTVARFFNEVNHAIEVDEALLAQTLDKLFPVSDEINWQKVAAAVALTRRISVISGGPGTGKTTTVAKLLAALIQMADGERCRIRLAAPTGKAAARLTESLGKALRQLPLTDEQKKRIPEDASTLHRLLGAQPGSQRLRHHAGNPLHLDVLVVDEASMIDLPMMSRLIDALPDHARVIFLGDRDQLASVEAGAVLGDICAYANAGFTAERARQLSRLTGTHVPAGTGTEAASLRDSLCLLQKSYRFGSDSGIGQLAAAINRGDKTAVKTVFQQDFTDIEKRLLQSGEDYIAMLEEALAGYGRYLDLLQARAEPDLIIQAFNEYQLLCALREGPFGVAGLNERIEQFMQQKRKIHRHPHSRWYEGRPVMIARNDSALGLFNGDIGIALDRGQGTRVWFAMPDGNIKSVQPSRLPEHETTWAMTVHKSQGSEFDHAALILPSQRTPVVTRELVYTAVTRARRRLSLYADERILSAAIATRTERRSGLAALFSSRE
Exodeoxyribonuclease V, sequence (P07648 whole entry): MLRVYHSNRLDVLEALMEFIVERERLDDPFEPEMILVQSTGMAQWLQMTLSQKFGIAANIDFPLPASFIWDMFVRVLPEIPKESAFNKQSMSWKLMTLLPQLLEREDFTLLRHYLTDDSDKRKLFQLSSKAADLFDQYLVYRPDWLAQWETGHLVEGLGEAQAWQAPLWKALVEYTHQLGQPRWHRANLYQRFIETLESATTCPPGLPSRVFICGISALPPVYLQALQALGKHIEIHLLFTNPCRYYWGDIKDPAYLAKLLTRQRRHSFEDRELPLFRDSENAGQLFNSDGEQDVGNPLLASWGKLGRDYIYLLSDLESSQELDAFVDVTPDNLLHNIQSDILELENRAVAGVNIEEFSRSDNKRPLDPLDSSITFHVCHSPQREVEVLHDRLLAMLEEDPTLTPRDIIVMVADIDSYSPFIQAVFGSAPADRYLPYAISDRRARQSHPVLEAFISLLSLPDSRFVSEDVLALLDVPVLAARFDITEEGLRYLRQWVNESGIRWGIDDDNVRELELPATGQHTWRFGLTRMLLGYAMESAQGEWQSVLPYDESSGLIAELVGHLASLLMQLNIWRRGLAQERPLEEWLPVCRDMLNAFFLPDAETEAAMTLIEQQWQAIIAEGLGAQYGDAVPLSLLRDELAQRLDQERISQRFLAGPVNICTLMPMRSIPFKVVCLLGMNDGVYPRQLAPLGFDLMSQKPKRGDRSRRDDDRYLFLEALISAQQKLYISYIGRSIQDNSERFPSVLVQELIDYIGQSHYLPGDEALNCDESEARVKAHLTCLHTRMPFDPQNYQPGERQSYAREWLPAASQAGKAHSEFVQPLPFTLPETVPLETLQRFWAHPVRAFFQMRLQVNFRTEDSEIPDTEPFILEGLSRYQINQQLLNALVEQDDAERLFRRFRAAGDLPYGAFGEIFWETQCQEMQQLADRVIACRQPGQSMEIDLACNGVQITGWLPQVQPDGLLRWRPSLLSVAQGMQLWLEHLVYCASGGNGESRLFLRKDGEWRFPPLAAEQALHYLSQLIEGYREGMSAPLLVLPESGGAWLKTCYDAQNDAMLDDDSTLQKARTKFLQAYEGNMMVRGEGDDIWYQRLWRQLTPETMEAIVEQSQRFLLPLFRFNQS
Exodeoxyribonuclease V, sequence (P08394 whole entry): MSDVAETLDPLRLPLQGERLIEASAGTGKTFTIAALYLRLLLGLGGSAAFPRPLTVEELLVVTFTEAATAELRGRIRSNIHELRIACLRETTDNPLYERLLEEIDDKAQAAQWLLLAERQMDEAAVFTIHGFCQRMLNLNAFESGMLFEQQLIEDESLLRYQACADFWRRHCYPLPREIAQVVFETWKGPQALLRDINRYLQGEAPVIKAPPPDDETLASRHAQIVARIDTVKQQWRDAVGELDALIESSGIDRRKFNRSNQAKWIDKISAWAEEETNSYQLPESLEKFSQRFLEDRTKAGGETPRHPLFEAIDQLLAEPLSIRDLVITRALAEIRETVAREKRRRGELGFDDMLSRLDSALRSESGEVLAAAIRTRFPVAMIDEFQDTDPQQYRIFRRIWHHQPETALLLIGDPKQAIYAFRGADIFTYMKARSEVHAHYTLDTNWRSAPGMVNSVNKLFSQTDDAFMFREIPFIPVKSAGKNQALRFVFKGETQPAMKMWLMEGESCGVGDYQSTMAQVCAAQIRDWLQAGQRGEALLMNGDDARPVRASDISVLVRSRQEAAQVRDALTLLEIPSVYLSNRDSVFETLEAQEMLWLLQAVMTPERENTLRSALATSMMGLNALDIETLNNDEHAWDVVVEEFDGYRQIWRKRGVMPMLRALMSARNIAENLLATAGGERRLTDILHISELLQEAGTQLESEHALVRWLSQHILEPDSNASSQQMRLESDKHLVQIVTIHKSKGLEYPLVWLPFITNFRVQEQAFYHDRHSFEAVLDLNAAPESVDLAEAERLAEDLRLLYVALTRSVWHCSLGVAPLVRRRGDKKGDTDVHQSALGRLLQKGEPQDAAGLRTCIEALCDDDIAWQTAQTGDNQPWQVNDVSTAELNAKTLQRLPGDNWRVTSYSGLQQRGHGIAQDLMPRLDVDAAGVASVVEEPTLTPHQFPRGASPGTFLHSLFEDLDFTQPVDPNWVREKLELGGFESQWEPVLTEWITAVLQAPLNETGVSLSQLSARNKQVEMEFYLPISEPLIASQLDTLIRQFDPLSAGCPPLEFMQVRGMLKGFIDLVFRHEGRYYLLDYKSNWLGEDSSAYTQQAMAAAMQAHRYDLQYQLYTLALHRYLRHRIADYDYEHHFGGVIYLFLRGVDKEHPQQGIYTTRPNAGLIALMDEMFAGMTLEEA
Paired box protein Pax-8, sequence (Q06710 whole entry): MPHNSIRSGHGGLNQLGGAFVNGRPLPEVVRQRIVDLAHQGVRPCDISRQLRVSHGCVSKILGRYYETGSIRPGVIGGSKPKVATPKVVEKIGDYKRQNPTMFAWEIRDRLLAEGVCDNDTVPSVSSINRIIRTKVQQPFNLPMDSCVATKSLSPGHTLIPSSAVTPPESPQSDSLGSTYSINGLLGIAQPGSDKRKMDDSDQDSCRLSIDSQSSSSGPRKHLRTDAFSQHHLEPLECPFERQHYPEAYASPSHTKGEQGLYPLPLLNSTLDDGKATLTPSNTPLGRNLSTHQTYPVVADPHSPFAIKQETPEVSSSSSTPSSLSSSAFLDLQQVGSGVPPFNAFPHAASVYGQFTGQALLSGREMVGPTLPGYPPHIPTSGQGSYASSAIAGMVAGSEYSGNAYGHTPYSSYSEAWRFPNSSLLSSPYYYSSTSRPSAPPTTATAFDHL
Type-1 angiotensin II receptor, sequence (P30556 whole entry): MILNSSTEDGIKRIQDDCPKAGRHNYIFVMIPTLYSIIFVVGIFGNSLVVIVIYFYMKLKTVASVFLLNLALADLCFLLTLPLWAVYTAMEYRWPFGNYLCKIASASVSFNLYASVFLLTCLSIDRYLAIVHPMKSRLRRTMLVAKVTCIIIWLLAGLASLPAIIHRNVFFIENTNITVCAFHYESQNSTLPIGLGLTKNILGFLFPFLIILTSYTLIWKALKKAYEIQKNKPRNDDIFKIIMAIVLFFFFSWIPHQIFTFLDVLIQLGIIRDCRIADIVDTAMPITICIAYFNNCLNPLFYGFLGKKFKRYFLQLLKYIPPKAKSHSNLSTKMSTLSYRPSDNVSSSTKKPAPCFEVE
Luciferin 4-monooxygenase, sequence (Q27757 whole entry): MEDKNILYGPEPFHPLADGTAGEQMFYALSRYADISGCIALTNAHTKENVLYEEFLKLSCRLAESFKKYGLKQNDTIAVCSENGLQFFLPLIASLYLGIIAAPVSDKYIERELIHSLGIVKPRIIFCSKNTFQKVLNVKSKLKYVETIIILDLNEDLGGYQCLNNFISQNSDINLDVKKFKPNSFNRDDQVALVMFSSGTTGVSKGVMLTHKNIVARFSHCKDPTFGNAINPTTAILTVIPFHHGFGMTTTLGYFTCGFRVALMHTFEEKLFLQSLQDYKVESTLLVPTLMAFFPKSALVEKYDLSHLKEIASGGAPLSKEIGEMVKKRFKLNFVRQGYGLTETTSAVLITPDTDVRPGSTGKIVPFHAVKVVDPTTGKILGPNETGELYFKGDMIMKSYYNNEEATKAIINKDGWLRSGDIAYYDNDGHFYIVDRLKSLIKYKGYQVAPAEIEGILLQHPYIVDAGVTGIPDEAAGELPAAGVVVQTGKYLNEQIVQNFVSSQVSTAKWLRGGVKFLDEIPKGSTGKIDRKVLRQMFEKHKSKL

For the molecule `CCN(CC)CCCNC1=C(Cl)C(=O)c2ccccc2C1=O`, the IC50 – broadly, the concentration at which inhibition is half-maximal – in [1] was 9.5 µM (not active); in [6], 1.8 µM (active); in experiment [7] it was 11.7 µM (active). Besides, the AC50 (as a rule, the concentration at which the activity in the assay is half-maximal) was 4.69 µM (active) in [2], 2.46 µM (active) in the experiment with INS1, 14.8 µM (active) in the experiment on A-375 and 1.78 µM (active) in experiment [5]. Besides, the EC50 (commonly the midpoint of the concentration-response curve) in [3] is 2.26 µM (active); in [4], 0.987 µM (active).

For the molecule `C(=N\Nc1nc2ccccc2s1)/c1ccccn1`, the cytotoxic concentration (CC50) (usually the concentration at which the toxic effect on the cells reaches its halfway point) in the experiment with Vero was 2.61 µM (active). The concentration at half-maximal activity (AC50) in experiment [8] was 2.06 µM (active); in [9], 2.02 µM (active); in experiment [11], 0.836 µM (active); in [13] it was 0.148 µM (active); on Paired box protein Pax-8, 3.32 µM (active); in [14], 9.34 µM (active). The results for the AC50 in experiment [15] and in experiment [16] were 3.72 µM (active) and 0.229 µM (active), respectively. Besides, the IC50 was > 80 µM (inactive) in [10], > 119 µM (inactive) in [12] and > 119 µM (inactive) at Exodeoxyribonuclease V. Moreover, the EC50 in experiment [17] was < 0.16 µM (active).

`O=C(O)c1ccccc1N=Nc1c(O)[nH]c2ccc([N+](=O)[O-])cc12`: the IC50 in experiment [18] is > 40 µM (not active); in experiment [19] it was 10.1 µM (active). In addition, the EC50 on Beta-galactosidase is > 40 µM (inactive).
